{
  "source": "ChEMBL document CHEMBL5543059",
  "about": "“Discovery of anti-inflammatory natural flavonoids: Diverse scaffolds and promising leads for drug discovery” (Eur J Med Chem, 2023)",
  "data": [
    {"tested_on": "BV-2", "assay": "Antiinflammatory activity against mouse BV-2 cells assessed as reduction in LPS induced NO production measured for 24 hrs by Griess reagent based analysis", "type": "functional, cell-based", "conditions": "BV-2, 24 h", "units": {"IC50": "µM"}, "values": [
      {"smiles": "Oc1cc(O)c2c(c1)O[C@@H](c1ccc(O)c(O)c1)[C@@H](O)C2", "note": "[(+)-EPICATECHIN]", "IC50": 29.1}
    ]},
    {"tested_on": "RAW264.7", "assay": "Antiinflammatory activity in mouse RAW264.7 cells assessed as decrease in LPS-induced IL-6 secretion after 24 hrs by ELISA method", "type": "functional, cell-based", "conditions": "RAW264.7, 24 h", "units": {"IC50": "µM"}, "values": [
      {"smiles": "COc1ccc2c(c1)O[C@H](c1ccc(O)cc1O)CC2", "IC50": 21.8},
      {"smiles": "COc1ccc([C@@H]2CCc3cc(OC)c(O)cc3O2)cc1O", "IC50": 12.5},
      {"smiles": "COc1cc2c(c(C)c1OC)O[C@H](c1cc(O)c(OC)c(O)c1)CC2", "IC50": 18}
    ]},
    {"tested_on": "J774.A1", "assay": "Anti-inflammatory activity in mouse J774.A1 macrophage cells assessed as reduction in LPS-induced TNF-alpha production", "type": "functional, cell-based", "conditions": "not given", "units": {"IC50": "µM"}, "values": [
      {"smiles": "COc1cc2oc(-c3ccccc3)cc(=O)c2c(O)c1OC", "note": "[MOSLOFLAVONE]", "IC50": 0.22},
      {"smiles": "COc1c2c(cc3oc(-c4ccccc4)cc(=O)c13)OCO2", "IC50": 0.22},
      {"smiles": "COc1cc2oc(-c3ccccc3)cc(=O)c2c(O)c1O", "IC50": 0.22}
    ]},
    {"tested_on": "RAW264.7", "assay": "Anti-neuroinflammatory activity in mouse RAW264.7 cells assessed as inhibition of LPS-induced NO production pre-incubated for 1 hr followed by LPS stimulation and measured after 24 hrs by Griess reagent based assay", "type": "functional, cell-based", "conditions": "not given", "units": {"IC50": "µM"}, "values": [
      {"smiles": "COc1c(-c2ccc3c(c2)OCO3)c(=O)oc2cc3oc(C(C)(C)O)cc3c(OC)c12", "IC50": 0.89},
      {"smiles": "C=C(C)c1cc2c(OC)c3c(O)c(-c4ccc(OC)cc4)c(=O)oc3c(OC)c2o1", "IC50": 0.89},
      {"smiles": "COc1ccc(-c2c(OC)c3c(OC)c4cc(C(C)(C)O)oc4cc3oc2=O)cc1", "IC50": 0.89},
      {"smiles": "COc1ccc(-c2c(O)c3c(OC)c4c(OC)c(C(C)C)oc4c(OC)c3oc2=O)cc1OC", "IC50": 0.89},
      {"smiles": "COc1c2c(cc3oc(=O)c(-c4ccc(O)cc4)c(O)c13)OC(C)(C)C=C2", "IC50": 0.89},
      {"smiles": "C=C(C)c1cc2c(OC)c3c(O)c(-c4ccc5c(c4)OCO5)c(=O)oc3c(OC)c2o1", "IC50": 0.89},
      {"smiles": "C=C(C)c1oc2c(OC)c3oc(=O)c(-c4ccc(OC)cc4)c(O)c3c(OC)c2c1OC", "IC50": 0.89}
    ]},
    {"tested_on": "RAW264.7", "assay": "Antiinflammatory activity in LPS-induced mouse RAW264.7 cells assessed as reduction in COX2 mRNA expression incubated for 24 hrs by qRT-PCR analysis", "type": "functional, cell-based", "conditions": "RAW264.7, 24 h", "units": {"IC50": "µM"}, "values": [
      {"smiles": "CC(C)=CCC/C(C)=C/Cc1cc(C2CC(=O)c3c(O)cc(O)cc3O2)ccc1O", "note": "(stereo not given)", "IC50": 11.7},
      {"smiles": "CC(C)=CCC/C(C)=C/Cc1c(C2CC(=O)c3c(O)cc(O)cc3O2)ccc(O)c1O", "note": "(stereo not given)", "IC50": 11.7},
      {"smiles": "CC(C)=CCC/C(C)=C/Cc1cc(C2CC(=O)c3c(O)cc(O)cc3O2)cc(O)c1O", "note": "(stereo not given)", "IC50": 11.7},
      {"smiles": "CC(C)=CCC/C(C)=C/Cc1c(O)cc2c(c1O)C(=O)CC(c1ccc(O)c(O)c1)O2", "note": "(stereo not given)", "IC50": 11.7}
    ]},
    {"tested_on": "Macrophage", "assay": "Anti-inflammatory activity in mouse macrophages extracted from abdominal activity assessed as inhibition of LPS-induced nitric oxide production", "type": "functional, cell-based", "conditions": "not given", "units": {"IC50": "µM"}, "values": [
      {"smiles": "COc1c(O)cc2oc(-c3ccc(O)c(O)c3)cc(=O)c2c1O", "note": "[EUPAFOLIN]", "IC50": 60},
      {"smiles": "COc1cc(-c2coc3cc(O)c(CC=C(C)C)c(O)c3c2=O)c(O)cc1O", "IC50": 6.72},
      {"smiles": "COc1ccc(-c2coc3cc(OC)c(CC=C(C)C)c(OC)c3c2=O)cc1", "IC50": 2.06},
      {"smiles": "COc1cc2occ(-c3ccc(O)cc3)c(=O)c2c(OC)c1CC=C(C)C", "IC50": 2.46},
      {"smiles": "COc1ccc(-c2coc3cc(O)c(CC=C(C)C)c(O)c3c2=O)c(O)c1", "IC50": 4.68},
      {"smiles": "COc1cc(-c2coc3cc(O)c(CC=C(C)C)c(O)c3c2=O)c(OC)cc1O", "note": "[VIRIDIFLORIN]", "IC50": 5.36}
    ]},
    {"tested_on": "not listed separately", "assay": "Anti-inflammatory activity in carrageenan-induced human PBMC cells assessed as inhibition of IL-beta leakage at 10 uM measured for 24 hrs relative to control", "type": "functional", "parameters": "scale not given: the % may be the effect or the level left", "conditions": "not given", "units": {"Activity": "%"}, "values": [
      {"smiles": "COc1ccc(-c2cc(=O)c3c(O)c(OC)c(OC)cc3o2)cc1OC", "Activity": 16.8},
      {"smiles": "COc1ccc(-c2cc(=O)c3c(O)c(OC)c(OC)c(O)c3o2)cc1OC", "Activity": 34.4},
      {"smiles": "COc1ccc(-c2cc(=O)c3c(O)c(OC)c(OC)c(OC)c3o2)cc1", "note": "[GARDENIN B]", "Activity": 33.8}
    ]},
    {"tested_on": "RAW264.7", "assay": "Antiinflammatory activity in LPS-activated mouse RAW264.7 cells assessed as inhibition of ROS production at 10 uM relative to control", "type": "functional", "parameters": "scale not given: the % may be the effect or the level left", "conditions": "not given", "units": {"Activity": "%"}, "values": [
      {"smiles": "COc1cc(O)ccc1/C=C/C(=O)c1ccc(O)cc1", "note": "[ECHINATIN]", "Activity": 80},
      {"smiles": "COc1c(/C=C/C(=O)c2ccc(O)cc2)ccc(O)c1O", "Activity": 80},
      {"smiles": "C=CC(C)(C)c1cc(/C=C/C(=O)c2ccc(O)cc2)c(OC)c(O)c1O", "Activity": 80}
    ]},
    {"tested_on": "RAW264.7", "assay": "Anti-inflammatory activity in mouse RAW264.7 cells assessed as inhibition of LPS-induced nitric oxide production measured after 18 hrs by Griess assay", "type": "functional, cell-based", "conditions": "RAW264.7, 18 h", "values": [
      {"smiles": "O=C1CC(c2ccc(O)cc2O)Oc2cc(O)cc(O)c21", "note": "(stereo not given) [STEPPOGENIN]", "IC50": "6.1 µg/mL"},
      {"smiles": "Cc1c(O)c2c(c(C(=O)C(C)C)c1O)OC(c1ccccc1)CC2=O", "note": "(stereo not given)", "IC50": "9.73 µM"},
      {"smiles": "Cc1c(O)c(C)c2c(c1O)C(=O)C[C@@H](c1ccc(O)c(O)c1)O2", "IC50": "20 µM"}
    ]},
    {"tested_on": "Neutrophil", "assay": "Inhibition of fMLF/CB-induced human Neutrophil activation assessed as reduction in elastase release", "type": "functional, cell-based", "conditions": "not given", "units": {"IC50": "µM"}, "values": [
      {"smiles": "c1ccc2c(c1)[I+]c1ccccc1-2", "note": "[DIPHENYLENEIODONIUM]", "IC50": 1}
    ]},
    {"tested_on": "J774.A1", "assay": "Antiinflammatory activity in LPS-induced mouse J774.A1 macrophage cells assessed as reduction in LPS-induced IL-1 beta level", "type": "functional, cell-based", "conditions": "not given", "units": {"IC50": "µM"}, "values": [
      {"smiles": "COc1cc2oc(-c3ccccc3)cc(=O)c2c(O)c1OC", "note": "[MOSLOFLAVONE]", "IC50": 6.4},
      {"smiles": "COc1c2c(cc3oc(-c4ccccc4)cc(=O)c13)OCO2", "IC50": 6.4},
      {"smiles": "COc1cc2oc(-c3ccccc3)cc(=O)c2c(O)c1O", "IC50": 6.4}
    ]},
    {"tested_on": "Neutrophil", "assay": "Inhibition of fMLF/CB-induced human Neutrophil activation assessed as reduction in superoxide anion generation pre-incubated for 2 mins prior to CB induction for 3 mins followed by fMLF addition by spectrophotometric analysis", "type": "functional, cell-based", "conditions": "not given", "units": {"IC50": "µM"}, "values": [
      {"smiles": "COc1cc(O)c2c(=O)cc(-c3cc(OC)c(OC/C=C(\\C)CCC=C(C)C)c(OC)c3)oc2c1", "IC50": "≤ 12.5"},
      {"smiles": "COc1cc(O)c2c(=O)cc(-c3ccc(OC)c(OC/C=C(\\C)CCC=C(C)C)c3)oc2c1", "IC50": "≤ 12.5"},
      {"smiles": "COc1cc(O)c2c(=O)cc(-c3ccc(OC)c(OC)c3)oc2c1", "IC50": "≤ 12.5"}
    ]}
  ]
}
